In PubChem BioAssay (NCI):
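Cultured in 96-well plates, cells were exposed to test compound for 48 hours across five concentrations. GI50 = concentration required for 50% inhibition of growth. TGI denotes the concentration required for complete inhibition of growth.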

Tests used:
Assay in all cases: DTP human tumour cell line panel, 48 h
SK-MEL-5 melanoma = tested on: SK-MEL-5 melanoma
ACHN renal = tested on: ACHN renal
UACC-257 melanoma = tested on: UACC-257 melanoma
HOP-62 NSCLC = tested on: HOP-62 NSCLC
NCI-H23 lung = tested on: NCI-H23 lung
U251 CNS = tested on: U251 CNS
LOX IMVI melanoma = tested on: LOX IMVI melanoma
NCI-H522 lung = tested on: NCI-H522 lung
BT-549 breast = tested on: BT-549 breast
SR leukemia = tested on: SR leukemia

Row | SMILES | TGI (SK-MEL-5 melanoma) [µM] | TGI (ACHN renal) [µM] | TGI (UACC-257 melanoma) [µM] | TGI (HOP-62 NSCLC) [µM] | TGI (NCI-H23 lung) [µM] | TGI (U251 CNS) [µM] | TGI (LOX IMVI melanoma) [µM] | TGI (NCI-H522 lung) [µM] | GI50 (SK-MEL-5 melanoma) [µM] | GI50 (LOX IMVI melanoma) [µM] | GI50 (ACHN renal) [µM] | GI50 (UACC-257 melanoma) [µM] | GI50 (HOP-62 NSCLC) [µM] | GI50 (NCI-H522 lung) [µM] | GI50 (NCI-H23 lung) [µM] | GI50 (BT-549 breast) [µM] | TGI (BT-549 breast) [µM] | GI50 (U251 CNS) [µM] | GI50 (SR leukemia) [µM] | TGI (SR leukemia) [µM]
1 | Clc1ccc(C2N3CCCCC3[C@@H]3c4[nH]c5ccccc5c4CCN23)cc1 (stereo not given in full) | > 100 | > 100 | > 100 | > 100 | > 100 | > 100 | – | – | – | – | – | – | – | – | – | – | – | – | – | –
2 | N#CC(C(=N/O)/C(=N/O)C(C#N)c1ccc(Cl)cc1)c1ccc(Cl)cc1 (stereo not given) | – | > 100 | > 100 | > 100 | > 100 | > 100 | > 100 | – | – | – | – | – | – | – | – | – | – | – | – | –
3 | CCCCNC1=C(C(=O)OCC)C(=O)CO1 | > 100 | > 100 | > 100 | > 100 | > 100 | > 100 | > 100 | > 100 | – | – | – | – | – | – | – | – | – | – | – | –
4 | CCCCC/C(C=C(C#N)C#N)=C/c1ccccc1 | 14.2 | 16.5 | 47.6 | 17.4 | 13.6 | 14.1 | 5.47 | 19.7 | 2.68 | 2.17 | 4.53 | 17.2 | 6.98 | 4.5 | 3.62 | 2.52 | 8.75 | 3.03 | – | –
5 | N#Cc1ccc(C#Cc2ccccc2C#CCCCCO)cc1 | 31.9 | 33.2 | 31.4 | 24 | 33.8 | 27.5 | 32.5 | 31.1 | 17.5 | 18.3 | 19.1 | 17.3 | 11.7 | 16.1 | 17.2 | 14.7 | 29.3 | 14.5 | – | –
6 | Cc1ccc(-c2c3c([nH]c(=O)c2C#N)-c2cc(F)ccc2OC3)cc1 | > 100 | > 100 | > 100 | – | – | > 100 | > 100 | 59.2 | 41.8 | > 100 | > 100 | > 100 | – | 19 | – | – | – | 46.2 | > 100 | > 100
7 | CCCCN(CCCC)C(=O)C(=O)C(C#N)c1ccc(C)cc1 (stereo not given) | > 100 | > 100 | > 100 | > 100 | > 100 | > 100 | > 100 | > 100 | – | – | – | – | – | – | – | – | – | – | – | –
8 | O=C1CNCCCN2CCN(CCCNCC(=O)Nc3ccc(cc3)S(=O)(=O)c3ccc(cc3)NC(=O)CNCCCN3CCN(CCCNCC(=O)Nc4ccc(cc4)S(=O)(=O)c4ccc(cc4)N1)CC3)CC2 | > 73 | > 61.5 | 32.7 | > 63.7 | > 76.9 | > 61.8 | > 100 | 53.8 | – | – | – | – | – | – | – | – | 58.4 | – | – | –
9 | CC12CC[C@@H](C(C)(C)O)C1[C@@H](O)CC1(C)C2CCC2[C@@]3(C)CC[C@H](O)C(C)(C)C3C(O)C[C@]21C (stereo not given in full) | 21.3 | 29.1 | – | – | 39.2 | 40 | – | – | – | – | – | – | – | – | – | – | – | – | – | –
10 | CCOC(=O)NC(=O)c1cn(C2OC(COC(=O)CCCCCCCCC(=O)OCC3OC(n4cc(C(=O)NC(=O)OCC)c(=O)[nH]c4=O)C(O)C3O)C(O)C2O)c(=O)[nH]c1=O (stereo not given) | > 100 | > 100 | > 100 | > 100 | > 100 | – | > 100 | – | – | – | – | – | – | – | – | – | – | – | – | > 100
11 | O=C1OCc2c1cc1ccc(O)c(OC3OC(CO)C(O)C(O)C3O)c1c2-c1ccc2c(c1)OCO2 (stereo not given) | 74.9 | > 100 | > 100 | > 100 | > 100 | > 100 | > 100 | 59.9 | 26.2 | – | – | 37.9 | – | 22.6 | 47.5 | – | – | – | – | –
12 | CN(C(=O)C12C3C4C1C1C2C3C41C(=O)C(C)(C)C)C(C)(C)C (stereo not given) | > 100 | > 100 | > 100 | > 100 | > 100 | > 100 | > 100 | > 100 | – | – | – | – | – | – | – | – | – | – | – | –
13 | CCNCCNc1cc(-c2ccc(C(=O)OC)cc2)c(C#N)c2nc3ccccc3n12 | 3.11 | 3.3 | 3.71 | 9.46 | > 100 | 3.11 | 2.99 | 4.52 | 1.7 | 1.53 | 1.66 | 1.87 | 2.48 | 1.72 | 3.82 | – | – | 1.53 | 0.24 | 0.613
14 | N#C/C(=C/c1ccsc1)C(=O)c1ccccc1 | > 100 | > 100 | > 100 | > 100 | > 100 | > 100 | > 100 | > 100 | – | – | – | – | – | – | – | – | – | – | – | > 100
15 | O=C(N/N=C/c1ccccc1O)c1cccc([N+](=O)[O-])c1 | > 61.3 | > 100 | > 60.6 | – | > 95.5 | > 100 | > 81.4 | > 100 | – | – | – | – | – | – | – | – | – | – | – | > 100
16 | Cc1nc2cccc([N+](=O)[O-])c2c(NCCCN(C)C)c1C | > 100 | > 100 | 57.3 | > 69.2 | > 31.6 | > 100 | > 100 | 40.6 | – | – | – | – | – | – | – | – | – | – | – | > 57.5
17 | CC1(Cl)C(=O)NC(=O)N(C2CC(N=[N+]=[N-])C(CO)O2)C1N=[N+]=[N-] (stereo not given) | > 100 | > 100 | > 100 | > 100 | > 100 | > 100 | > 100 | > 100 | – | – | – | – | – | – | – | – | – | – | – | –
18 | Cc1ccc(C)c(NC(=O)CC/C(=N\NC(=O)C(=O)NN)C(C)C(=O)c2ccc(O)cc2)c1 (stereo not given) | > 100 | > 100 | > 100 | > 100 | > 100 | > 100 | > 100 | > 100 | – | – | – | – | – | – | – | – | – | – | – | > 100
19 | COc1ccc2[nH]c3c(C)c4c(c(C)c3c2c1)CN(C)CC4 | 32 | 35 | 32.7 | 32.4 | – | 32 | 27.6 | 33.4 | – | – | – | – | – | – | – | – | – | – | – | 83.8
20 | OCCC1(O)CCC(O)CC1 (stereo not given) | > 100 | – | > 100 | > 100 | > 100 | > 100 | > 100 | > 100 | – | – | – | – | – | – | – | – | – | – | – | > 100
